# Columns and labels:
# Assay type in all cases: in vivo
# Details in all cases: scale 0 to 100
# [1] = tested on: speedwell (bird's-eye speedwell, Veronica persica); assay: Test D postemergence
# Method in brief: (§1)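 Plants were kept in a controlled environment for 14 to 21 days after spraying, then compared with untreated controls. Scores run from 0, no effect, to 100, complete control; preemergence pots used silt loam and postemergence pots a peat-based medium.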
# [2] = tested on: chickweed (common chickweed, Stellaria media); assay: Test D postemergence
# Method in brief: as §1
# [3] = tested on: downy bromegrass (Bromus tectorum); assay: Test D postemergence
# Method in brief: as §1
# [4] = tested on: field poppy (Papaver rhoeas); assay: Test D preemergence
# Text: (§2) Seeds of plant species selected from bluegrass (annual bluegrass, Poa annua), blackgrass (Alopecurus myosuroides), canarygrass (Phalaris minor), chickweed (common chickweed, Stellaria media), cutleaf geranium (Geranium dissectum), galium (catchweed bedstraw, Galium aparine), downy bromegrass (Bromus tectorum), field poppy (Papaver rhoeas), field violet (Viola arvensis), green foxtail (Setaria viridis), deadnettle (henbit deadnettle, Lamium amplexicaule), Italian ryegrass (Lolium multiflorum), kochia (Kochia scoparia), lambsquarters (Chenopodium album), oilseed rape (Brassica napus), pigweed (Amaranthus retroflexus), chamomile (scentless chamomile, Matricaria inodora), Russian thistle (Salsola kali), speedwell (bird's-eye speedwell, Veronica persica), spring barley (Hordeum vulgare), spring wheat (Triticum aestivum), wild buckwheat (Polygonum convolvulus), wild mustard (Sinapis arvensis), wild oat (Avenafatua), wild radish (Raphanus raphanistrum), windgrass (Apera spica-venti), winter barley (Hordeum vulgare), and winter wheat (Triticum aestivum) were planted into a silt loam soil and treated preemergence with test chemicals formulated in a non-phytotoxic solvent mixture which included a surfactant.
# (§3) At the same time, these species were planted in pots containing Redi-Earth® planting medium (Scotts Company, 14111 Scottslawn Road, Marysville, Ohio 43041) comprising spaghnum peat moss, vermiculite, wetting agent and starter nutrients and treated with postemergence applications of the test chemicals formulated in the same manner. Plants ranged in height from 2 to 18 cm (1- to 4-leaf stage). Treated plants and controls were maintained in a controlled growth environment for 14 to 21 days after which time all species were compared to controls and visually evaluated. Plant response ratings, summarized in Table D, are based on a scale of 0 to 100 where 0 is no effect and 100 is complete control. A dash (-) response means no test result.
# [5] = tested on: field violet (Viola arvensis); assay: Test D preemergence
# Text: as §2, §3
# [6] = tested on: cutleaf geranium (Geranium dissectum); assay: Test D preemergence
# Text: as §2, §3
# [7] = tested on: windgrass (Apera spica-venti); assay: Test D preemergence
# Text: as §2, §3
# [8] = tested on: green foxtail (Setaria viridis); assay: Test D preemergence
# Text: as §2, §3
# [9] = tested on: Russian thistle (Salsola kali); assay: Test D preemergence
# Text: as §2, §3
# [10] = tested on: oilseed rape (Brassica napus); assay: Test D preemergence
# Text: as §2, §3
# [11] = tested on: spring barley (Hordeum vulgare); assay: Test D preemergence
# Text: as §2, §3
# [12] = tested on: wild buckwheat (Polygonum convolvulus); assay: Test D preemergence
# Text: as §2, §3
# [13] = tested on: galium (catchweed bedstraw, Galium aparine); assay: Test D preemergence
# Text: as §2, §3
# [14] = tested on: chamomile (scentless chamomile, Matricaria inodora); assay: Test D preemergence
# Text: as §2, §3
# [15] = tested on: bluegrass (annual bluegrass, Poa annua); assay: Test D preemergence
# Text: as §2, §3
# [16] = tested on: winter wheat (Triticum aestivum); assay: Test D preemergence
# Text: as §2, §3
# [17] = tested on: spring wheat (Triticum aestivum); assay: Test D preemergence
# Text: as §2, §3
# [18] = tested on: chickweed (common chickweed, Stellaria media); assay: Test D preemergence
# Text: as §2, §3
# [19] = tested on: pigweed (Amaranthus retroflexus); assay: Test D preemergence
# Text: as §2, §3
# [20] = tested on: kochia (Kochia scoparia); assay: Test D preemergence
# Text: as §2, §3
# [21] = tested on: deadnettle (henbit deadnettle, Lamium amplexicaule); assay: Test D preemergence
# Text: as §2, §3
structure (smiles),measurement,setting,value
Fc1cnc(Oc2c(Br)cccc2Oc2ncc(Cl)cn2)nc1 [Compound 22],"Plant response rating, Speedwell",[1]; 16 g ai/ha,30
same,"Plant response rating, Speedwell",[1]; 31 g ai/ha,40
same,"Plant response rating, Speedwell",[1]; 62 g ai/ha,75
same,"Plant response rating, Speedwell",[1]; 125 g ai/ha,90
same,"Plant response rating, Chickweed",[2]; 16 g ai/ha,30
same,"Plant response rating, Chickweed",[2]; 31 g ai/ha,75
same,"Plant response rating, Chickweed",[2]; 62 g ai/ha,75
same,"Plant response rating, Chickweed",[2]; 125 g ai/ha,75
same,"Plant response rating, Bromegrass, Downy",[3]; 16 g ai/ha,5
same,"Plant response rating, Bromegrass, Downy",[3]; 31 g ai/ha,10
same,"Plant response rating, Bromegrass, Downy",[3]; 62 g ai/ha,20
same,"Plant response rating, Bromegrass, Downy",[3]; 125 g ai/ha,25
same,"Plant response rating, Field Poppy",[4]; 16 g ai/ha,65
same,"Plant response rating, Field Poppy",[4]; 31 g ai/ha,95
same,"Plant response rating, Field Poppy",[4]; 62 g ai/ha,100
same,"Plant response rating, Field Poppy",[4]; 125 g ai/ha,100
same,"Plant response rating, Field Violet",[5]; 16 g ai/ha,15
same,"Plant response rating, Field Violet",[5]; 31 g ai/ha,75
same,"Plant response rating, Field Violet",[5]; 62 g ai/ha,95
same,"Plant response rating, Field Violet",[5]; 125 g ai/ha,95
same,"Plant response rating, Geranium, Cutleaf",[6]; 16 g ai/ha,25
same,"Plant response rating, Geranium, Cutleaf",[6]; 31 g ai/ha,35
same,"Plant response rating, Geranium, Cutleaf",[6]; 62 g ai/ha,70
same,"Plant response rating, Geranium, Cutleaf",[6]; 125 g ai/ha,100
same,"Plant response rating, Windgrass",[7]; 16 g ai/ha,15
same,"Plant response rating, Windgrass",[7]; 31 g ai/ha,20
same,"Plant response rating, Windgrass",[7]; 62 g ai/ha,25
same,"Plant response rating, Windgrass",[7]; 125 g ai/ha,70
same,"Plant response rating, Foxtail, Green",[8]; 16 g ai/ha,15
same,"Plant response rating, Foxtail, Green",[8]; 31 g ai/ha,35
same,"Plant response rating, Foxtail, Green",[8]; 62 g ai/ha,40
same,"Plant response rating, Foxtail, Green",[8]; 125 g ai/ha,40
same,"Plant response rating, Russian Thistle",[9]; 16 g ai/ha,0
same,"Plant response rating, Russian Thistle",[9]; 31 g ai/ha,0
same,"Plant response rating, Russian Thistle",[9]; 62 g ai/ha,5
same,"Plant response rating, Russian Thistle",[9]; 125 g ai/ha,5
same,"Plant response rating, Oilseed Rape",[10]; 16 g ai/ha,30
same,"Plant response rating, Oilseed Rape",[10]; 31 g ai/ha,40
same,"Plant response rating, Oilseed Rape",[10]; 62 g ai/ha,70
same,"Plant response rating, Oilseed Rape",[10]; 125 g ai/ha,90
same,"Plant response rating, Barley, Spring",[11]; 16 g ai/ha,0
same,"Plant response rating, Barley, Spring",[11]; 31 g ai/ha,5
same,"Plant response rating, Barley, Spring",[11]; 62 g ai/ha,15
same,"Plant response rating, Barley, Spring",[11]; 125 g ai/ha,65
same,"Plant response rating, Buckwheat, Wild",[12]; 16 g ai/ha,10
same,"Plant response rating, Buckwheat, Wild",[12]; 31 g ai/ha,10
same,"Plant response rating, Buckwheat, Wild",[12]; 62 g ai/ha,15
same,"Plant response rating, Buckwheat, Wild",[12]; 125 g ai/ha,85
same,"Plant response rating, Galium",[13]; 16 g ai/ha,60
same,"Plant response rating, Galium",[13]; 31 g ai/ha,65
same,"Plant response rating, Galium",[13]; 62 g ai/ha,75
same,"Plant response rating, Galium",[13]; 125 g ai/ha,100
same,"Plant response rating, Chamomile",[14]; 16 g ai/ha,30
same,"Plant response rating, Chamomile",[14]; 31 g ai/ha,40
same,"Plant response rating, Chamomile",[14]; 62 g ai/ha,55
same,"Plant response rating, Chamomile",[14]; 125 g ai/ha,100
same,"Plant response rating, Bluegrass",[15]; 16 g ai/ha,0
same,"Plant response rating, Bluegrass",[15]; 31 g ai/ha,20
same,"Plant response rating, Bluegrass",[15]; 62 g ai/ha,60
same,"Plant response rating, Bluegrass",[15]; 125 g ai/ha,90
same,"Plant response rating, Wheat, Winter",[16]; 16 g ai/ha,0
same,"Plant response rating, Wheat, Winter",[16]; 31 g ai/ha,0
same,"Plant response rating, Wheat, Winter",[16]; 62 g ai/ha,5
same,"Plant response rating, Wheat, Winter",[16]; 125 g ai/ha,40
same,"Plant response rating, Wheat, Spring",[17]; 16 g ai/ha,0
same,"Plant response rating, Wheat, Spring",[17]; 31 g ai/ha,5
same,"Plant response rating, Wheat, Spring",[17]; 62 g ai/ha,15
same,"Plant response rating, Wheat, Spring",[17]; 125 g ai/ha,35
same,"Plant response rating, Chickweed",[18]; 16 g ai/ha,10
same,"Plant response rating, Chickweed",[18]; 31 g ai/ha,25
same,"Plant response rating, Chickweed",[18]; 62 g ai/ha,100
same,"Plant response rating, Chickweed",[18]; 125 g ai/ha,100
same,"Plant response rating, Pigweed",[19]; 16 g ai/ha,75
same,"Plant response rating, Pigweed",[19]; 31 g ai/ha,70
same,"Plant response rating, Pigweed",[19]; 62 g ai/ha,100
same,"Plant response rating, Pigweed",[19]; 125 g ai/ha,100
same,"Plant response rating, Kochia",[20]; 16 g ai/ha,0
same,"Plant response rating, Kochia",[20]; 31 g ai/ha,10
same,"Plant response rating, Kochia",[20]; 62 g ai/ha,20
same,"Plant response rating, Kochia",[20]; 125 g ai/ha,70
same,"Plant response rating, Deadnettle",[21]; 16 g ai/ha,20
same,"Plant response rating, Deadnettle",[21]; 31 g ai/ha,60
same,"Plant response rating, Deadnettle",[21]; 62 g ai/ha,85
same,"Plant response rating, Deadnettle",[21]; 125 g ai/ha,100

# Reference: patent US20170190671A1, “BIS(ARYL)CATECHOL DERIVATIVES AS HERBICIDES” (E I DU PONT DE NEMOURS AND COMPANY, priority 2014, published 2017)
